Experimental data taken from PMC10975178, “Evaluation on the Potential for Hepatotoxic Components from Herba Epimedii to Induce Apoptosis in HepG2 Cells and the Analysis of the Influence of Metabolism in Liver Microsomes” (Molecules, 2024).
Where two headings read alike, the source gives them in different places.

How the values were obtained:
caspase-9 = assay: Western blot, caspase-9 expression in HepG2 cells; format: cell-based; conditions: 24 h, high concentration (sagittatoside A 49, icariside I 50, baohuoside I 32, icaritin 3.8 μg/mL), vs untreated cells
Protocol: To explore the mechanism of apoptosis induced by the hepatotoxic compounds, the expression of key proteins related to apoptosis, including Bax, Bcl-2, Caspase-3 and Caspase-9, was assessed by western blotting. HepG2 cells were treated with different concentrations of the hepatotoxic compounds for 24 h and collected with a cell scraper. The concentrations of sagittatoside A were set to 12.2, 24.5, and 49 μg/mL; those of icariside I were 12.5, 25, and 50 μg/mL; baohuoside I was used at 8, 16, and 32 μg/mL; and icaritin was tested at 0.9, 1.9 and 3.8 μg/mL. The cells were washed twice with PBS and lysed in total protein cell lysis buffer. Protein concentrations were determined using a BCA protein assay kit (Thermo Fisher Scientific, Waltham, MA, USA). Then, to destroy the 3-dimensional protein structure, the proteins in the loading buffer were heated at 95 °C for 5 min. An equal amount of protein from each sample was separated by SDS-PAGE on 10% SDS–polyacrylamide gels. After the protein was transferred to a polyvinylidene difluoride membrane (Millipore, Bedford, MA, USA), the membrane was incubated in blocking buffer (5% nonfat dairy milk in TBST) for 2 h and probed with various antibodies (1:1000) overnight at 4 °C. The membrane was then probed with a secondary antibody (1:5000) for 2 h at room temperature, and detection was performed with an enhanced chemiluminescence kit (Millipore, Bedford, MA, USA). β-Actin was used as the control to confirm equal loading. Densitometry index analysis of the bands was conducted using a gel imagery system. The changes in the protein expression levels are expressed as percentages relative to the levels measured in the corresponding control groups.

[1] = format: in vitro ADME, humans; conditions: human, microsomes, 5 μM; for amount remaining: 1 h; for final amount remaining: 60 min
Protocol: The incubation mixtures were prepared following the instructions from the manufacturer of the metabolic stability kits and contained sagittatoside A, icariside I, baohuoside I, and icaritin, of which the final concentrations were 49, 50, 32 and 3.8 μg/mL. The final concentration of organic solvents in the incubation mixture was 1% (v/v). After preincubation for 5 min at 37 °C, metabolic reactions of phase I and II were both initiated by the addition of human liver microsomes (final concentration, 0.20 mg protein/mL). Phase I metabolism is mediated by the enzyme cytochrome P450 (CYP), and phase II metabolism is mediated by UDP-glucuronosyltransferase (UGT). The whole reaction process was performed under aerobic conditions. After 30 min, an equal volume of cold acetonitrile was added and vortexed for 1 min to terminate the reactions. Subsequently, 200 μL of the resulting solution was centrifuged at 3000 rpm and 4 °C for 10 min. Then, 100 μL of supernatant was dried at 40 °C with nitrogen gas, and the residue was redissolved in 100 μL with fresh medium to prepare for treating cells. Negative controls (incubation without substrate) were prepared in the same manner.
The incubation mixtures were also prepared following Section 2.4 and contained sagittatoside A, icariside I, baohuoside I, and icaritin, of which the final concentrations were 5.00 μM. After the mixtures were incubated separately in phase I or phase II metabolism systems for 5, 10, 15, 20, 30, 45 and 60 min, the reactions were terminated by adding an equal volume of cold acetonitrile (with 7 μM IS) and vortex mixing for 1 min. Subsequently, 200 μL of the resulting solution was centrifuged at 3000 rpm and 4 °C for 10 min. Then, 100 μL of supernatant was dried at 40 °C with nitrogen gas, and the residue was redissolved in 100 μL of 50% methanol to prepare the samples for HPLC–MS/MS detection. Time zero samples (prepared by first adding cold acetonitrile and then adding NADPH for phase I metabolism or NADPH and UDPGA for phase II metabolism) and negative controls (incubation without substrate) were prepared separately in the same manner.
HPLC analysis was performed on an AB Sciex ExionLC HPLC system (Santa Clara, CA, USA) equipped with an autosampler, a vacuum degasser unit, a quaternary pump, a diode array detector (DAD) and a column compartment. Samples were separated on an ACQUITY ΜPLC BEH C18 column (2.1 × 100 mm, 1.7 μm) connected to an ACQUITY ΜPLC BEH C18 precolumn (2.1 × 5 mm, 1.7 μm) at 40 °C. The mobile phases were water with 0.05% formic acid (A) and methanol-acetonitrile (v/v 1:1) with 0.05% formic acid (B), and the elution gradient was as follows: 70% A (0.00–1.00 min), 2% A (2.50–3.50 min), and 70% A (3.51–7.00 min). The flow rate was set at 0.23 mL/min, and the injection volume was 5 μL.
Electrospray ionization–mass spectrometry (ESI–MS) analyses were performed on an AB Sciex QTRAP 5500 (EG250911902) mass spectrometer (Santa Clara, CA, USA). Detection was performed with multiple reaction monitoring (MRM) in ESI negative ion mode. The spray voltage was set to −4500 V, the curtain gas was 25 psi, the collision gas was set to medium, both auxiliary gases 1 and 2 were used at 45 psi, and the heating temperature was 550 °C.
In accordance with the above HPLC–MS/MS analysis method, the content of each compound in the sample at each time point was measured. Then, using the substrate depletion method, the content of each compound in the time zero sample was set as 100%, and the percent residual substrate was calculated. The relationship between the natural logarithmic value of the percent residual substrate and time point was explored by linear regression using GraphPad Prism 5.0 software, and the slope (−k) was obtained. […]

in vitro [2] = format: in vitro ADME, rhesus monkeys; conditions: rhesus monkey, microsomes; for amount remaining: 1 h, 5 μM
in vitro [3] = format: in vitro ADME, beagle dogs; conditions: beagle, dog, microsomes; for amount remaining: 1 h, 5 μM
in vitro [4] = format: in vitro ADME, mice; conditions: mouse, microsomes; for final amount remaining: 60 min, 5 μM

amount remaining [1] [%]	final amount remaining [1] [%]	amount remaining (in vitro [2]) [%]	CLint scaled at 5 μM (in vitro [3]) [mL/min/kg]	amount remaining (in vitro [3]) [%]	final amount remaining (in vitro [4]) [%]	CLint scaled at 5 μM (in vitro [2]) [mL/min/kg]	CLint scaled at 5 μM (in vitro [4]) [mL/min/kg]	SMILES	caspase-9 expression (caspase-9)
20.74 ± 0.39	5.56 ± 0.60	12.41 ± 1.02	27.6	11.74 ± 0.78	11.64 ± 1.63	–	–	COc1ccc(-c2oc3c(CC=C(C)C)c(O)cc(O)c3c(=O)c2O[C@@H]2O[C@@H](C)[C@H](O)[C@@H](O)[C@H]2O)cc1 [baohuoside I]	significant increase
10.08 ± 0.43	45.62 ± 1.52	6.50 ± 0.49	25.2	34.93 ± 2.83	12.18 ± 0.64	38.1	79.3	COc1ccc(-c2oc3c(CC=C(C)C)c(O[C@@H]4O[C@H](CO)[C@@H](O)[C@H](O)[C@H]4O)cc(O)c3c(=O)c2O)cc1 [icariside I]	significant increase
36.23 ± 1.12	20.51 ± 0.97	24.73 ± 2.38	–	16.75 ± 0.20	7.73 ± 0.17	–	–	COc1ccc(-c2oc3c(CC=C(C)C)c(O)cc(O)c3c(=O)c2O)cc1 [icaritin]	significant increase
